Experimental data: patent US7534444B2, “Molecular mimetics of meningococcal B epitopes which elicit functionally active antibodies” (priority 2001, dated 2009)
Ends that are not written are not given here.

Columns and labels:
anti-GNA33 mAb 25 = test: Peptide binding assay with cellulose-bound spot-synthesised peptides; parameters: species or system mouse; conditions: for Relative Binding (of anti-GNA33 mAb 25): alanine substitution of PorA loop 4 VR type P1.2-2 10-mer; for Dye Units (binding of anti-GNA33 mAb 25): mAb 25 6 μg/ml
Method: Peptide spot synthesis was carried out on amino-PEG-cellulose membranes (ABIMED, Langerfeld, Germany) using a model ASP 222 automated spot synthesizer (ABIMED) and diisopropylcarbodiimide (DIC)/N-hydroxybenzotriazole (HOBt) activation (Frank and Overwin, Methods Mol. Biol. (1996) 66:149-169). In situ-prepared 0.2 M HOBt esters of fluorenylmethoxycarbonyl (Fmoc)-amino acid derivatives were used for the coupling reaction. […] After the final cycle, all the peptides were N-terminally acetylated with 2% acetic anhydride. At the end of the synthesis, the side-chain protecting groups were removed using a mixture of trifluoroacetic acid/triisobutylsilane/water/dichloromethane (50/3/2/45).
Cellulose-bound peptides were soaked in ethanol to prevent hydrophobic interactions between the peptides. Non-specific binding was blocked by incubating cellulose sheets overnight at 4° C. with 10 ml of 2% casein in Tris buffered saline (TBS: 50 mM Tris-HCl, 137 mM NaCl, […], pH 7.0), containing 0.05% TWEEN® 20 (T-TBS). The sheets were incubated for 2 hr at 37° C. with the anti-GNA33 mAb 25 (6 μg/ml) or an anti-PorA 1.2 mAb diluted 1:100 in T-TBS blocking buffer. Alkaline phosphatase-conjugated goat anti-mouse IgG (BioRad) was then added at 1:3000 dilution in T-TBS blocking buffer for 1 hr at 37° C. Sheets were washed three times with T-TBS and detection of binding was achieved by incubating the sheets with bromo-4-chloro-3-indolyl-phosphate (BCIP) (Sigma, Steinheim, Germany) and […] in substrate buffer (100 mM Tris, pH 8.9, 100 mM NaCl, 2 mM MgCl2). Quantitative evaluation of the signal was obtained using a Umax Speedy II 2200 optical scanner.

[1] = molecular target: PorA of N. meningitidis strain NMB (B:2b:P1.5,2) (Neisseria meningitidis serogroup B strain NMB); test: cell-based or functional assay
[2] = molecular target: PorA of N. meningitidis strain M5545 (B:NT:P1.5,2) (Neisseria meningitidis serogroup B strain M5545); test: cell-based or functional assay
[3] = molecular target: PorA of N. meningitidis strain M986 (B:2a:P1.5,2) (Neisseria meningitidis serogroup B strain M986); test: cell-based or functional assay
[4] = molecular target: PorA of N. meningitidis strain 2996 (B:2b:P1.5,2) (Neisseria meningitidis serogroup B strain 2996); test: cell-based or functional assay
[5] = molecular target: PorA of N. meningitidis strain M5954 (C:2a:P1.2) (Neisseria meningitidis serogroup C strain M5954); test: cell-based or functional assay
[6] = molecular target: PorA of N. meningitidis strain 8047 (B:2b:P1.5,2) (Neisseria meningitidis serogroup B strain 8047); test: cell-based or functional assay
[7] = molecular target: PorA of N. meningitidis strain M5682 (B:2a:P1.5,2) (Neisseria meningitidis serogroup B strain M5682); test: cell-based or functional assay
[8] = molecular target: PorA of N. meningitidis strain M3735 (B:NT:P1.5,2) (Neisseria meningitidis serogroup B strain M3735); test: cell-based or functional assay
[9] = molecular target: PorA of N. meningitidis strain BZ232 (B:NT:P1.2) (Neisseria meningitidis serogroup B strain BZ232); test: cell-based or functional assay
[10] = test system: encapsulated MenB strain 2996; conditions: mice immunized; measured against encapsulated MenB strain 2996; cited from earlier work
[11] = test system: P1.2 epitope of PorA loop 4; test: Immunization of CD1 mice with rGNA33 in Freund's adjuvant; assay type: in vivo; conditions: recombinant protein simply mixed with Freund's adjuvant, without renaturation
Method: In order to prepare antisera against GNA33, 20 μg of purified HT-GNA33 or untagged rGNA33 was used to immunize six-week old CD1 female mice (four to ten mice per group). The mice were obtained from Charles River (Italia S.P.A., Calco, Italy, or Hollister, Calif.). The recombinant protein was given i.p, together with complete Freund's adjuvant (CFA) for the first dose and incomplete Freund's adjuvant (IFA) for the second (day 21) and third (day 35) booster doses. Blood samples were taken on days 34 and 49.

[12] = overlapping decapeptides from GNA33
[13] = overlapping decapeptides from loop 4 of PorA P1.2 (strain 2996)

## PAH FVA QTP Q (Ac-PAHFVAQTPQ)
anti-GNA33 mAb 25
  Relative Binding (of anti-GNA33 mAb 25): 2

## meningococcal Por A P1.2-specific subtyping mAb (MN16C13F4, subclass IgG2a) (antibody)
[1]
  BC50, human complement: < 0.5 µg/mL
[2]
  BC50, human complement: < 0.5 µg/mL
[3]
  BC50, human complement: < 0.5 µg/mL
[4]
  BC50, human complement: < 0.5 µg/mL
[5]
  BC50, human complement: < 0.5 µg/mL
[6]
  BC50, human complement: < 0.5 µg/mL
[7]
  BC50, human complement: < 0.5 µg/mL
[8]
  BC50, human complement: < 0.5 µg/mL
[9]
  BC50, human complement: < 0.5 µg/mL

## QAFQTPVHSF
anti-GNA33 mAb 25; [12]
  Dye Units (binding of anti-GNA33 mAb 25): 30 Dye Units

## TPVHSFQAKQ
anti-GNA33 mAb 25; [12]
  Dye Units (binding of anti-GNA33 mAb 25): 2 Dye Units

## HFVQQTPQSQ (Ac-HFVQQTPQSQ)
anti-GNA33 mAb 25; [13]
  Dye Units (binding of anti-GNA33 mAb 25): 15 Dye Units

## AFQTPVHSFQ
anti-GNA33 mAb 25; [12]
  Dye Units (binding of anti-GNA33 mAb 25): 24 Dye Units

## FVQQTPQSQP (Ac-FVQQTPQSQP)
anti-GNA33 mAb 25; [13]
  Dye Units (binding of anti-GNA33 mAb 25): 9 Dye Units

## TPAHFVQQTP
anti-GNA33 mAb 25; [13]
  Dye Units (binding of anti-GNA33 mAb 25): 8 Dye Units

## AHFVQQTPQS (Ac-AHFVQQTPQS)
anti-GNA33 mAb 25; [13]
  Dye Units (binding of anti-GNA33 mAb 25): 14 Dye Units

## AQAFQTPVHS
anti-GNA33 mAb 25; [12]
  Dye Units (binding of anti-GNA33 mAb 25): 30 Dye Units

## PAH FVQ QAP Q (Ac-PAHFVQQAPQ)
anti-GNA33 mAb 25
  Relative Binding (of anti-GNA33 mAb 25): 0

## PAH FVQ ATP Q (Ac-PAHFVQATPQ)
anti-GNA33 mAb 25
  Relative Binding (of anti-GNA33 mAb 25): 0

## SAQAFQTPVH
anti-GNA33 mAb 25; [12]
  Dye Units (binding of anti-GNA33 mAb 25): 29 Dye Units

## QTPVHSFQAK
anti-GNA33 mAb 25; [12]
  Dye Units (binding of anti-GNA33 mAb 25): 19 Dye Units

## FQTPVHSFQA
anti-GNA33 mAb 25; [12]
  Dye Units (binding of anti-GNA33 mAb 25): 22 Dye Units

## PAH FVQ QTA Q (Ac-PAHFVQQTAQ)
anti-GNA33 mAb 25
  Relative Binding (of anti-GNA33 mAb 25): 0

## QDVSAQAFQT
anti-GNA33 mAb 25; [12]
  Dye Units (binding of anti-GNA33 mAb 25): 0 Dye Units

## PAH AVQ QTP Q (Ac-PAHAVQQTPQ)
anti-GNA33 mAb 25
  Relative Binding (of anti-GNA33 mAb 25): 1

## PAA FVQ QTP Q (Ac-PAAFVQQTPQ)
anti-GNA33 mAb 25
  Relative Binding (of anti-GNA33 mAb 25): 8

## YTPAHFVQQT (Ac-YTPAHFVQQT)
anti-GNA33 mAb 25; [13]
  Dye Units (binding of anti-GNA33 mAb 25): 0 Dye Units

## DVSAQAFQTP
anti-GNA33 mAb 25; [12]
  Dye Units (binding of anti-GNA33 mAb 25): 23 Dye Units

## PAH FAQ QTP Q (Ac-PAHFAQQTPQ)
anti-GNA33 mAb 25
  Relative Binding (of anti-GNA33 mAb 25): 4

## VQQTPQSQPT (Ac-VQQTPQSQPT)
anti-GNA33 mAb 25; [13]
  Dye Units (binding of anti-GNA33 mAb 25): 4 Dye Units

## QTPQSQPTLV (Ac-QTPQSQPTLV)
anti-GNA33 mAb 25; [13]
  Dye Units (binding of anti-GNA33 mAb 25): 2 Dye Units

## TPQSQPTVP
anti-GNA33 mAb 25; [13]
  Dye Units (binding of anti-GNA33 mAb 25): 2 Dye Units

## PGH FVQ QTP Q (Ac-PGHFVQQTPQ)
anti-GNA33 mAb 25
  Relative Binding (of anti-GNA33 mAb 25): 8

## PAHFVQQTPQ (Ac-PAHFVQQTPQ)
anti-GNA33 mAb 25; [13]
  Dye Units (binding of anti-GNA33 mAb 25): 10 Dye Units

## QQTPQSQPTL (Ac-QQTPQSQPTL)
anti-GNA33 mAb 25; [13]
  Dye Units (binding of anti-GNA33 mAb 25): 0 Dye Units

## PAK FVQ QTP A (PAHFVQQTPA)
anti-GNA33 mAb 25
  Relative Binding (of anti-GNA33 mAb 25): 2

## VSAQAFQTPV
anti-GNA33 mAb 25; [12]
  Dye Units (binding of anti-GNA33 mAb 25): 27 Dye Units

B1: rGNA33: recombinant GNA33 of strain 2996, soluble protein without signal and lipid modification sequences (protein)
chain: MKKYLFRAALCGIAAAILAACQSKSIQTFPQPDTSVINGPDRPVGIPDPAGTTVGGGGAVYTVVPHLSLPHWAAQDFAKSLQSFRLGCANLKNRQGWQDVCAQAFQTPVHSVQAKQFFERYFTPWQVAGNGSLAGTVTGYYEPVLKGDDRRTAQARFPIYGIPDDFISVPLPAGLRSGKALVRIRQTGKNSGTIDNTGGTHTADLSQFPITARTTAIKGRFEGSRFLPYHTRNQINGGALDGKAPILGYAEDPVELFFMHIQGSGRLKTPSGKYIRIGYADKNEHPYVSIGRYMADKGYLKLGQTSMQGIKAYMQQNPQRLAEVLGQNPSYIFFRELTGSSNDGPVGALGTPLMGEYAGAVDRHYITLGAPLFVATAHPVTRKALNRLIMAQDTGSAIKGAVRVDYFWGYGDEAGELAGKQKTTGYVWQLLPNGMKPEYRP
[10]
  serum bactericidal antibody titers: high
[11]
  antibody elicited by immunization: elicited bactericidal antibody
